One may read the chromatographic logP as a lipophilicity value derived from retention on a column. Lower therefore signals lower lipophilicity.

Here are results for 70 molecules from patent US8981111B2 (priority 2008, dated 2015).

A short description of the series: log P (HPLC/MS data of the preparation examples). As to conditions: for log p: method [b]: LC-MS at pH 2.7, 0.1% formic acid in water / acetonitrile, linear gradient 10% to 95% acetonitrile; for chromatographic logP: reversed phase HPLC column, pH 2.7.

With `CC(C)CC(=O)Nc1cccc(CON=C(c2ccccc2)c2nn(C)c(=O)n2C)n1` [Example 148], the log p was 2.82^[b].
Consider `Cn1nc(C(=NOCc2cccc(NC(=O)Cc3ccccc3)n2)c2ccccc2)n(C)c1=O` [Example 149], for which the log p was 2.94^[b].
For the molecule `Cn1nc(C(=NOCc2cccc(NC(=O)CCc3ccccc3)n2)c2ccccc2)n(C)c1=O` [Example 150], the log p is 3.19^[b].
For the molecule `Cn1nc(C(=NOCc2cccc(NC(=O)CC(F)(F)F)n2)c2ccccc2)n(C)c1=O` [Example 151], the log p is 2.66^[b].
With `Cn1nc(C(=NOCc2cccc(NC(=O)c3cccs3)n2)c2ccccc2)n(C)c1=O` [Example 152], the log p was 2.82^[b].
With `Cn1nc(C(=NOCc2cccc(NC(=O)CCC3CCCC3)n2)c2ccccc2)n(C)c1=O` [Example 153], the log p was 3.71^[b].
Same read-out and setting: in the case of `Cn1ccnc1C(=NOCc1nccc(NC(=O)C2CC2)n1)c1ccccc1` [Example 154] it was 1.5^[b]; in that of `Cn1ccnc1C(=NOCc1nccc(NC(=O)Cc2ccccc2)n1)c1ccccc1` [Example 155], 2.01^[b]; in that of `Cn1cnnc1C(=NOCc1cccc(N)n1)c1ccccc1` [Example 156], 0.88^[b].
Turning to `CCCCCOC(=O)Nc1cccc(CON=C(c2ccccc2)c2nncn2C)n1` [Example 157], the log p is 3.29^[b].
Turning to `Cn1cnnc1C(=NOCc1cccc(NC(=O)Cc2ccccc2)n1)c1ccccc1` [Example 158], the log p was 2.56^[b].
On the same count and under the same terms, in the case of `CC(C)COC(=O)Nc1cccc(CON=C(c2ccccc2)c2nncn2C)n1` [Example 159] it was 2.88^[b].
As for `Cn1cnnc1C(=NOCc1cccc(NC(=O)CC(F)(F)F)n1)c1ccccc1` [Example 160], the log p was 2.28^[b].
On to `Cn1ncnc1C(=NOCc1cccc(CN2C(=O)c3ccccc3C2=O)n1)c1ccccc1` [Example 161], for which the log p was 2.9^[b].
For the molecule `Cn1ncnc1C(=NOCc1cccc(CN)n1)c1ccccc1` [Example 162], the log p was 0.99^[b].
For `Cc1cccc(C(=NOCc2cccc(N)n2)c2ncnn2C)c1` [Example 164], the log p is 1.08^[b].
In the case of `Cn1nncc1C(=NOCc1csc(N)n1)c1ccccc1` [Example 165], the log p was 1.29^[b].
On to `Cn1ccnc1C(=NOCc1nccc(NC(=O)C(C(=O)Cc2ccccc2)c2ccccc2)n1)c1ccccc1` (stereo not shown) [Example 166], for which the log p was 2.59^[b].
With `Cn1cnnc1C(=NOCc1cccc(NC(=O)C(C)(C)C)n1)c1ccccc1` [Example 167], the log p is 2.44^[b].
With `Cc1nc(C(=NOCc2cccc(NC(=O)C(C)(C)C)n2)c2ccccc2)cs1` [Example 172], the log p was 3.56^[b].
Turning to `Cn1nc(C(F)(F)F)nc1C(=NOCc1cccc(NC(=O)Cc2ccccc2)n1)c1ccccc1` [Example 175], the log p is 4.24^[b].
As to `Cn1nc(C(F)(F)F)nc1C(=NOCc1cccc(NC(=O)CCc2ccccc2)n1)c1ccccc1` [Example 176], the log p was 4.49^[b].
Consider `CC(C)CC(=O)Nc1cccc(CON=C(c2ccccc2)c2nc(C(F)(F)F)nn2C)n1` [Example 177], for which the log p was 4.24^[b].
Turning to `Cn1nc(C(F)(F)F)nc1C(=NOCc1cccc(NC(=O)C(C)(C)C)n1)c1ccccc1` [Example 178], the log p is 4.31^[b].
Consider `CCCCCOC(=O)Nc1cccc(CON=C(c2ccccc2)c2nc(C(F)(F)F)nn2C)n1` [Example 179], for which the log p was 5.2^[b].
`CC(C)COC(=O)Nc1cccc(CON=C(c2ccccc2)c2nc(C(F)(F)F)nn2C)n1` [Example 180]: the log p is 4.78^[b].
`Cn1nc(C(F)(F)F)nc1C(=NOCc1cccc(N)n1)c1ccccc1` [Example 181]: the log p is 1.97^[b].
Take `CCCCCC(=O)Nc1cccc(CON=C(c2ccccc2)c2nc(C(F)(F)F)nn2C)n1` [Example 182]: the log p is 4.67^[b].
On to `Cn1nc(C(F)(F)F)nc1C(=NOCc1cccc(N2C(=O)c3ccccc3C2=O)n1)c1ccccc1` [Example 183], for which the log p was 3.99^[b].
Take `Cn1nc(C(F)(F)F)nc1C(=NOCc1cccc(NC(=O)C2CCCC2)n1)c1ccccc1` [Example 184]: the log p was 4.41^[b].
As for `CC(=O)OCCCCOC(=O)Nc1cccc(CON=C(c2ccccc2)c2nc(C(F)(F)F)nn2C)n1` [Example 185], the log p is 4.11^[b].
On to `Cc1cc(C(F)(F)F)nn1CC(=O)Nc1cccc(CON=C(c2ccccc2)c2nc(C(F)(F)F)nn2C)n1` [Example 186], for which the log p is 4.31^[b].
`CCCCCOC(=O)Nc1cccc(CON=C(c2ccccc2)c2csc(C)n2)n1` [Example 187]: the log p was 4.51^[b].
As to `Cn1c(C(=NOCc2cccc(N3C(=O)c4ccccc4C3=O)n2)c2ccccc2)nnc1C(F)(F)F` [Example 192], the log p is 3.31^[b].
On the same count and under the same terms, in the case of `Cc1ncc(C(=NOCc2cccc(N3C(=O)c4ccccc4C3=O)n2)c2ccccc2)n1C` [Example 194] it was 1.84^[b].
In the case of `CCCCCOC(=O)Nc1cccc(CON=C(c2ccccc2)c2csc(C)n2)n1` [Example 195], the log p is 4.92^[b].
Turning to `CCCCCC(=O)Nc1cccc(CON=C(c2ccccc2)c2nnc(C(F)(F)F)n2C)n1` [Example 196], the log p was 3.94^[b].
Same read-out and setting: in the case of `CCCCCOC(=O)Nc1cccc(CON=C(c2ccccc2)c2nnc(C(F)(F)F)n2C)n1` [Example 197] it was 4.49^[b]; in that of `Cn1c(C(=NOCc2cccc(NC(=O)C(C)(C)C)n2)c2ccccc2)nnc1C(F)(F)F` [Example 198], 3.58^[b].
As for `Cn1c(C(=NOCc2cccc(NC(=O)Cc3ccccc3)n2)c2ccccc2)nnc1C(F)(F)F` [Example 200], the log p is 3.6^[b].
Still for that read-out and setting: the value for `Cn1c(C(=NOCc2cccc(NC(=O)CCc3ccccc3)n2)c2ccccc2)nnc1C(F)(F)F` [Example 201] was 3.85^[b].
For `Cn1c(C(=NOCc2cccc(NC(=O)C3CCCC3)n2)c2ccccc2)nnc1C(F)(F)F` [Example 202], the log p was 3.69^[b].
For `CC(C)COC(=O)Nc1cccc(CON=C(c2ccccc2)c2nnc(C(F)(F)F)n2C)n1` [Example 203], the log p was 4.06^[b].
Still for that read-out and setting: in the case of `Cn1c(C(=NOCc2cccc(NC(=O)c3cccs3)n2)c2ccccc2)nnc1C(F)(F)F` [Example 204] it was 3.48^[b]; in that of `CCOc1ccc(C(=O)Nc2cccc(CON=C(c3ccccc3)c3nnc(C(F)(F)F)n3C)n2)cc1` [Example 205], 3.94^[b]; in that of `CSCCC(=O)Nc1cccc(CON=C(c2ccccc2)c2nnc(C(F)(F)F)n2C)n1` [Example 206], 3.15^[b].
For the molecule `CCCCC(=O)Nc1cccc(CON=C(c2ccccc2)c2nnc(C(F)(F)F)n2C)n1` [Example 207], the log p was 3.58^[b].
Consider `Cn1ncnc1C(=NOCc1cccc(N2CCCCC2=O)n1)c1ccccc1` [Example 208], for which the log p is 2.18^[b].
For the molecule `Cc1ncc(C(=NOCc2cccc(N)n2)c2ccccc2)n1C` [Example 209], the log p was 0.56^[b].
Same read-out and setting: the value for `CCCCCOC(=O)Nc1cccc(CON=C(c2ccccc2)c2cnc(C)n2C)n1` [Example 211] was 3.13^[b].
For the molecule `CCCCCC(=O)Nc1cccc(CON=C(c2ccccc2)c2cnc(C)n2C)n1` [Example 212], the log p was 2.08^[b].
On to `Cc1nnsc1C(=NOCc1cccc(N2C(=O)c3ccccc3C2=O)n1)c1ccccc1` [Example 214], for which the log p was 3.69^[b].
`Cc1nnsc1C(=NOCc1cccc(N)n1)c1ccccc1` [Example 215]: the log p is 1.63^[b].
Consider `CCCCCC(=O)Nc1cccc(CON=C(c2ccccc2)c2snnc2C)n1` [Example 216], for which the log p was 4.46^[b].
Same read-out and setting: the value for `CCCCCOC(=O)Nc1cccc(CON=C(c2ccccc2)c2snnc2C)n1` [Example 217] was 5.11^[b].
Regarding `Cc1nnsc1C(=NOCc1cccc(NC(=O)CC(C)C)n1)c1ccccc1` [Example 218], the log p is 3.96^[b].
Regarding `Cc1nnsc1C(=NOCc1cccc(NC(=O)Cc2ccccc2)n1)c1ccccc1` [Example 219], the log p was 4.04^[b].
Turning to `Cc1nnsc1C(=NOCc1cccc(NC(=O)CCc2ccccc2)n1)c1ccccc1` [Example 220], the log p is 4.31^[b].
Regarding `Cc1nnsc1C(=NOCc1cccc(NC(=O)CCC2CCCC2)n1)c1ccccc1` [Example 221], the log p is 5^[b].
As for `Cc1nnsc1C(=NOCc1cccc(NC(=O)OCC(C)C)n1)c1ccccc1` [Example 222], the log p is 4.65^[b].
Consider `Cc1nnsc1C(=NOCc1cccc(NC(=O)CCC2CCCCC2)n1)c1ccccc1` [Example 223], for which the log p was 5.41^[b].
Take `CCCCC(=O)Nc1cccc(CON=C(c2ccccc2)c2snnc2C)n1` [Example 224]: the log p was 4.04^[b].
The same measure, in the same setting: the value for `Cn1ccnc1C(=NOCc1cccc(N2C(=O)c3ccccc3C2=O)n1)c1cccc(F)c1` [Example 227] was 2.13^[b].
The molecule `Cn1cnnc1C(=NOCc1cccc(Br)n1)c1ccccc1` [Example 228, N-[(6-bromopyridin-2-yl)methoxy]-1-(4-methyl-4H-1,2,4-triazol-3-yl)-1-phenylmethanimine] registered a chromatographic logP of 2.28.
`Cn1cnnc1C(=NOCc1cccc(C#CC2CC2)n1)c1ccccc1` [Example 229, N-{[6-(cyclopropylethynyl)pyridin-2-yl]methoxy}-1-(4-methyl-4H-1,2,4-triazol-3-yl)-1-phenylmethanimine]: the chromatographic logP was 2.56.
Consider `Cn1cnnc1C(=NOCc1cccc(C#CCC2CCCC2)n1)c1ccccc1` [Example 230], for which the log p is 3.76^[b].
Regarding `Cn1cnnc1C(=NOCc1cccc(C#CCC2CCCCC2)n1)c1ccccc1` [Example 231], the log p was 4.14^[b].
On to `Cn1cnnc1C(=NOCc1cccc(C#Cc2ccccc2)n1)c1ccccc1` [Example 232], for which the log p is 3.15^[b].
Regarding `Cn1ccnc1C(=NOCc1cccc(N)n1)c1cccc(F)c1` [Example 233], the log p is 0.54^[b].
As to `COc1ccccc1CC(=O)Nc1cccc(CON=C(c2ccccc2)c2ncnn2C)n1` [Example 234], the log p was 3.17^[b].
